ChEMBL document CHEMBL3769328, “Design and optimization of tricyclic gamma-secretase modulators” (Bioorg Med Chem Lett, 2016)
The source made the active and inactive calls. No cut-off for these calls is given here.

Key:
Cytochrome P450 3A4 = Cytochrome P450 3A4 (Homo sapiens, UniProt P08684); experiment: Inhibition of CYP3A4 (unknown origin) by fluorescence assay
Gamma-secretase [1] = experiment: Modulation of gamma secretase in human H4 cells assessed as inhibition of amyloid beta (1 to 42) production; format: cell-based
Gamma-secretase [2] = experiment: Modulation of gamma secretase in human H4 cells transfected with APP751 SWE clone 8.20 mutant assessed as inhibition of amyloid beta (1 to 42) production after 19 hrs; format: cell-based
[3] = Plasma concentration in 3x transgenic Alzheimer's disease mouse model at 1 mg/kg, po measured after 3 hrs; format: ADME, organism-based; conditions: 3x transgenic Alzheimer's disease model
[4] = Plasma concentration in 3x transgenic Alzheimer's disease mouse model at 30 mg/kg, po measured after 3 hrs; format: ADME, organism-based; conditions: 3x transgenic Alzheimer's disease model
[5] = Total drug level in 3x transgenic Alzheimer's disease mouse brain at 30 mg/kg, po measured after 3 hrs; format: ADME, organism-based; conditions: 3x transgenic Alzheimer's disease model, read-out: Drug uptake
Mus musculus [6] = experiment: Anti-alzheimer activity in 3x transgenic mouse model of Alzheimer's disease assessed as amyloid beta (1 to 42) level in brain at 3 mg/kg, po measured after 3 hrs by ELISA relative to control; format: functional
Mus musculus [7] = experiment: Anti-alzheimer activity in 3x transgenic mouse model of Alzheimer's disease assessed as amyloid beta (1 to 42) level in brain at 10 mg/kg, po measured after 3 hrs by ELISA relative to control; format: functional
[8] = Plasma protein binding in human; format: ADME, cell-free; conditions: read-out: PPB
Mus musculus [9] = experiment: Effect on total amyloid beta production in 3x transgenic mouse model of Alzheimer's disease at 1 to 100 mg/kg, po measured after 3 hrs by ELISA; format: ADME, organism-based; conditions: in vivo
Liver microsome = experiment: Drug metabolism in human liver microsomes; format: ADME
Mus musculus [10] = experiment: Anti-alzheimer activity in 3x transgenic mouse model of Alzheimer's disease assessed as amyloid beta (1 to 42) level in brain at 1 mg/kg, po measured after 3 hrs by ELISA relative to control; format: functional
[11] = Plasma protein binding in mouse; format: ADME, cell-free; conditions: read-out: PPB
Mus musculus [12] = experiment: Anti-alzheimer activity in 3x transgenic mouse model of Alzheimer's disease assessed as amyloid beta (1 to 42) level in brain at 100 mg/kg, po measured after 3 hrs by ELISA relative to control; format: functional
[13] = molecular target: Voltage-gated inwardly rectifying potassium channel KCNH2 (Homo sapiens, UniProt Q12809); experiment: Inhibition of human ERG by thallium flux assay
Sequence of Voltage-gated inwardly rectifying potassium channel KCNH2 (Q12809 whole entry): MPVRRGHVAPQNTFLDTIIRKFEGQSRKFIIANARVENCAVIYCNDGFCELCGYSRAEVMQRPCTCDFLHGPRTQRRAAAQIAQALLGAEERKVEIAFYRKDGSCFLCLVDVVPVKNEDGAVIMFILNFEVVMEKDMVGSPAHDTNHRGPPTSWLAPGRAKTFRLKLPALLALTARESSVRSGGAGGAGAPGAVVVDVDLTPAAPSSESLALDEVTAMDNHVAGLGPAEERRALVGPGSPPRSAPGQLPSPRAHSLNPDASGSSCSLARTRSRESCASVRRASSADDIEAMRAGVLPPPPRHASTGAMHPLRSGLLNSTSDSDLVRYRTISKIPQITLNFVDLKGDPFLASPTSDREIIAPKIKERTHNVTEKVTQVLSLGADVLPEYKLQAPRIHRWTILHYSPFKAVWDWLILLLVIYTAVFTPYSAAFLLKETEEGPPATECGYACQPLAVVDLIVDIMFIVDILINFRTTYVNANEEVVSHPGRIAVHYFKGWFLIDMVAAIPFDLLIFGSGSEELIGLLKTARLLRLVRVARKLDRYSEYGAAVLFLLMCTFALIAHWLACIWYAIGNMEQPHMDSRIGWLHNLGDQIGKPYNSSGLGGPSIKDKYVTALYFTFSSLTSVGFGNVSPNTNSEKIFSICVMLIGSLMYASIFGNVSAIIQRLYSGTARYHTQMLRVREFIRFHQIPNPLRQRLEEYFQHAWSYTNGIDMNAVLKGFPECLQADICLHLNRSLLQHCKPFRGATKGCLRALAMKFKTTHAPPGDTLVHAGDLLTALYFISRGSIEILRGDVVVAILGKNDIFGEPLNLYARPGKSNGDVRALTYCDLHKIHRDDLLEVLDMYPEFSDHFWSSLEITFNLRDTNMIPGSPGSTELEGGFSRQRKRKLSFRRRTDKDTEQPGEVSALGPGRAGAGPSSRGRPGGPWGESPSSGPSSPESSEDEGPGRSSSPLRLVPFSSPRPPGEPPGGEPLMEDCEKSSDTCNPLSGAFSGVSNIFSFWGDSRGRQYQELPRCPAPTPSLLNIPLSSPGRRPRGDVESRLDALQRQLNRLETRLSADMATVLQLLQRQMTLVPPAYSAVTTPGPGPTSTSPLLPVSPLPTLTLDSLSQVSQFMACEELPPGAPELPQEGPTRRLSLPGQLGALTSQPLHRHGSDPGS

[14] = Ratio of total drug level in brain to plasma in 3x transgenic mouse model of Alzheimer's disease at 30 mg/kg, po measured after 3 hrs; format: ADME, organism-based; conditions: 3x transgenic Alzheimer's disease model, read-out: BPR
[15] = Plasma concentration in 3x transgenic Alzheimer's disease mouse model at 3 mg/kg, po measured after 3 hrs; format: ADME, organism-based; conditions: 3x transgenic Alzheimer's disease model
Mus musculus [16] = experiment: Anti-alzheimer activity in 3x transgenic mouse model of Alzheimer's disease assessed as amyloid beta (1 to 42) level in brain at 30 mg/kg, po measured after 3 hrs by ELISA relative to control; format: functional
[17] = Plasma concentration in 3x transgenic Alzheimer's disease mouse model at 100 mg/kg, po measured after 3 hrs; format: ADME, organism-based; conditions: 3x transgenic Alzheimer's disease model
[18] = Plasma concentration in 3x transgenic Alzheimer's disease mouse model at 10 mg/kg, po measured after 3 hrs; format: ADME, organism-based; conditions: 3x transgenic Alzheimer's disease model
Mus musculus [19] = organism: Mus musculus; conditions: Brain, 30 mg/kg

Sequence of Cytochrome P450 3A4 (P08684 whole entry): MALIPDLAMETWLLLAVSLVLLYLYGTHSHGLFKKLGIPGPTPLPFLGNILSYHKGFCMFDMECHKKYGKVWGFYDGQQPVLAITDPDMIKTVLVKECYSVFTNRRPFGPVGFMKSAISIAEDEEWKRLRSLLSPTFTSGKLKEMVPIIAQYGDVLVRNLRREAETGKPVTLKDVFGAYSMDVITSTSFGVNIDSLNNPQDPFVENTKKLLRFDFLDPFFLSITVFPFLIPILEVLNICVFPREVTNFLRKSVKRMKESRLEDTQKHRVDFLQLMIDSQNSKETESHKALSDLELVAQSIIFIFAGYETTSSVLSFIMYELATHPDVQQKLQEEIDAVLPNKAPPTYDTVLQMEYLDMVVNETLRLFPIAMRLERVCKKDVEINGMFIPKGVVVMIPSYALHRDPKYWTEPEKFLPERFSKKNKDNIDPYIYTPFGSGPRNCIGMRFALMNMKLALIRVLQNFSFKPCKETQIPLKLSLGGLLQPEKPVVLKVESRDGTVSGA

SMILES	IC50 (Cytochrome P450 3A4) [nM]	IC50 (Gamma-secretase [1]; read-out: IC50) [nM]	other results
Cc1cn(-c2cc3c(cc2F)Nc2nc(Cc4ccccc4)ccc2C(=O)N3)cn1	30	820	
Cc1cc(-c2ccc3c(c2)CCc2sc(Cc4ccccc4)nc2N3)ccn1		50	
CNc1nc(Nc2ccc(-n3cncn3)c(OC)c2)nc(-c2ccccc2)n1			IC50 (Gamma-secretase [2]): 180 nM
Cc1cc(-c2ccc3c(c2)CCc2sc(Cc4ccc(F)c(F)c4)nc2N3)ccn1		120	
Cc1cncn1-c1ccc2c(c1)CCc1sc(Cc3ccc(F)cc3)nc1N2		1800	
Cc1cn(-c2ccc3c(c2)CCc2ccc(Cc4ccc(F)cc4)nc2C3=O)cn1	300	1000	
Cc1cc(-c2ccc3c(c2)CCc2sc(Cc4ccc(F)cc4)nc2N3)ccn1		80	
Cc1ncn(-c2ccc3c(c2)CCc2cnn(Cc4ccccc4)c2N3)n1			IC50 (Gamma-secretase [1]): Not Active
O=C1Nc2cc(-n3cnc(Cl)c3)ccc2Nc2nc(Cc3ccccc3)ccc21	> 13000	190	
CNc1nc(Cc2ccccc2)nc(Nc2ccc(-n3cnc(C)c3)c(OC)c2)n1			IC50 (Gamma-secretase [2]): 29 nM
Clc1cn(-c2ccc3c(c2)CCc2sc(Cc4ccccc4)nc2N3)cn1		140	
COc1ccc(Cc2nc3c(o2)CCc2cc(-c4ccnc(C)c4)ccc2C3=O)cc1	300	300	
COc1ccc(Cc2nc3c(n2C)CCc2cc(-c4ccnc(C)c4)ccc2C3=O)cc1	300	380	
COc1ccc(Cc2nc3c(n2C)CCc2cc(-n4cnc(C)c4)ccc2C3=O)cc1		1100	
Cc1ncn(-c2ccc3c(c2)CCc2cn(Cc4ccccc4)nc2N3)n1	300	180	
Cc1cn(-c2ccc3c(c2)CCc2sc(Cc4ccc(F)cc4)nc2N3)cn1		20	
Clc1cn(-c2ccc3c(c2)CCc2cnn(Cc4ccccc4)c2N3)cn1			IC50 (Gamma-secretase [1]): Not Active
Cc1ncn(-c2ccc3c(c2)NC(=O)c2ccc(Cc4ccccc4)nc2N3)n1	2000	460	
Clc1cn(-c2ccc3c(c2)CCc2cn(Cc4ccccc4)nc2N3)cn1	300	40	
Cc1cn(-c2ccc3c(c2)NC(=O)c2ccc(C(C)c4ccccc4)nc2N3)cn1 (racemic)	200	100	
CC(c1ccccc1)c1ccc2c(n1)Nc1ccc(-n3cnc(Cl)c3)cc1NC2=O (racemic)	> 13000	200	
Cc1cn(-c2ccc3c(c2)CCc2sc(Cc4ccccc4)nc2N3)cn1	700	35	concentration at 3 h [3]: 0.21 µM; concentration at 3 h [4]: 8 µM; concentration at 3 h [5]: 8.9 µM; Activity (Mus musculus [6]): 100%; Activity (Mus musculus [7]): 70%; fraction unbound [8]: < 0.002; Activity (Mus musculus [9]): Non-toxic; Drug metabolism (Liver microsome): 0.035 nmol/min/mg; Activity (Mus musculus [10]): 110%; fraction unbound [11]: < 0.002; Activity (Mus musculus [12]): 50%; inhibition (INH) [13]: Not Active; Kp at 3 h [14]: 1.1; concentration at 3 h [15]: 0.48 µM; Activity (Mus musculus [16]): 60%; concentration at 3 h [17]: 25 µM; concentration at 3 h [18]: 3.8 µM
N#Cc1ccc2c(c1)CCc1sc(Cc3ccccc3)nc1N2		1200	
Cc1cn(-c2ccc3c(c2)NC(=O)c2ccc(Cc4ccccc4)nc2N3)cn1	150	50	inhibition (Mus musculus [19]): inactive
Cc1ncn(-c2ccc3c(c2)CCc2sc(Cc4ccccc4)nc2N3)n1		140	
